These are literature values, as cited in US20100119592A1, “CYTARABINE FOR TREATMENT OF GLIOMA” (priority 2006, published 2010).

The series deals with proliferating mammalian cells in culture. The settings on record: wide variety of proliferating mammalian cells in culture.

Regarding `Nc1ccn([C@@H]2O[C@H](CO)[C@@H](O)[C@@H]2O)c(=O)n1` [Cytarabine, 4-amino-1-beta-D-arabinofuranosyl-2(1H)-pyrimidinone], the cytotoxicity entry is on record as “cytotoxic”.
